13 molecules from PubChem BioAssay (NCI) can be followed below.

Among the test systems are HOP-62 NSCLC; HT29 colon; M14 melanoma; MALME-3M melanoma; NCI-H522 lung; OVCAR-8 ovarian; RPMI-8226 leukemia; SF-539 CNS; SK-MEL-5 melanoma.
Holding throughout (assay): NCI-60 cell line screen, 48 h

Where “and” joins values, the source holds several entries; their conditions need not be identical. Equal entries are not always repeated.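 Five compound concentrations were applied to cells in 96-well plates for 48 hours; endpoints were derived by simple linear interpolation of the resulting dose-response curve. Here, GI50 denotes the concentration required for 50% inhibition of growth. At the TGI there is no net growth.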

On to `Nc1ncnc2c(C3OC(CO)C(O)C3O)[nH]nc12` (stereo not given), for which the GI50 was 0.123 µM with HOP-62 NSCLC; 0.248 µM with M14 melanoma; 0.519 µM with MALME-3M melanoma; 0.239 µM in the assay on NCI-H522 lung; 0.0375 µM and 0.0527 µM in the assay on OVCAR-8 ovarian; 0.271 µM in the assay on SF-539 CNS. Besides, the GI50 in the assay with SK-MEL-5 melanoma is 0.984 µM. Besides, the TGI in the assay with HT29 colon was 10.5 µM and 4.62 µM; in the assay on M14 melanoma it was 13.5 µM; in the assay with MALME-3M melanoma, 5.33 µM and 2.75 µM; with NCI-H522 lung, 3.74 µM and 6.29 µM; in the assay with OVCAR-8 ovarian, 0.624 µM and 0.713 µM; with RPMI-8226 leukemia, 3.96 µM. Moreover, the TGI was 2.32 µM and 5.87 µM in the assay with SF-539 CNS; 10.9 µM and 7.47 µM in the assay on SK-MEL-5 melanoma.

As to `COc1cc2c(c(OC)c1OC)-c1ccc(SC)c(=O)cc1[C@@H](NCc1cccc(C#N)c1)CC2`, the GI50 with HOP-62 NSCLC, in the assay on HT29 colon, in the assay on M14 melanoma, in the assay with MALME-3M melanoma, in the assay on NCI-H522 lung and in the assay with OVCAR-8 ovarian was below 0.0075 µM each time. The GI50 in the assay with RPMI-8226 leukemia and with SF-539 CNS was below 0.0075 µM throughout. In addition, the TGI in the assay with HOP-62 NSCLC is above 75 µM; in the assay with HT29 colon, 0.0348 µM and < 0.0075 µM; in the assay with MALME-3M melanoma, above 75 µM; with NCI-H522 lung, 0.0377 µM and < 0.0075 µM; in the assay on RPMI-8226 leukemia, 40.7 µM; in the assay with SF-539 CNS it was 0.0354 µM and < 0.0075 µM. In the assay on SK-MEL-5 melanoma, this molecule returned a TGI of 0.0641 µM.

In the case of `NCCCC1NC(=O)/C(=C(O)/C=C/C2CCC[C@@H]2CC2SCCS2)C1=O` (stereo not given in full), the TGI in the assay with HOP-62 NSCLC is above 100 µM; in the assay on HT29 colon it was above 100 µM; with M14 melanoma, above 100 µM; with MALME-3M melanoma, above 100 µM; in the assay on NCI-H522 lung, 98.4 µM; with OVCAR-8 ovarian, above 100 µM. In addition, the TGI in the assay with RPMI-8226 leukemia, in the assay with SF-539 CNS and in the assay on SK-MEL-5 melanoma was above 100 µM in each case.

For the molecule `Cc1ccccc1NC(=O)C1C(=O)N(c2ccccc2C)C(=O)/C1=N\N` (stereo not given), the TGI in the assay with HOP-62 NSCLC, in the assay with HT29 colon, in the assay with M14 melanoma, in the assay on MALME-3M melanoma, with NCI-H522 lung and with OVCAR-8 ovarian was above 100 µM throughout. The TGI in the assay on RPMI-8226 leukemia, in the assay with SF-539 CNS and in the assay with SK-MEL-5 melanoma was above 100 µM throughout.

Consider `Cc1c(C(=O)/C=C/c2ccccc2Cl)[n+](=O)c2ccccc2n1[O-]`, for which the TGI is 34.2 µM in the assay on HOP-62 NSCLC; 33.8 µM in the assay on HT29 colon; 29 µM in the assay on M14 melanoma; 29.2 µM with MALME-3M melanoma; 23.3 µM in the assay on NCI-H522 lung; 26.1 µM in the assay on OVCAR-8 ovarian. The TGI with RPMI-8226 leukemia came out at 36.1 µM; in the assay with SF-539 CNS, 29.4 µM; in the assay with SK-MEL-5 melanoma, 31.9 µM.

`CCOC(=O)N1N=NC2C3OC(C[C@@]3(C#N)OC(C)=O)[C@H]21` (stereo not given in full): the TGI with HOP-62 NSCLC, in the assay with HT29 colon, in the assay with M14 melanoma, in the assay on MALME-3M melanoma, in the assay on NCI-H522 lung and with OVCAR-8 ovarian was above 100 µM each time. Besides, the TGI in the assay with RPMI-8226 leukemia, in the assay on SF-539 CNS and with SK-MEL-5 melanoma was above 100 µM throughout.

Consider `Nc1ccc2c(c1)CC1c3ccccc3C(C2)c2ccccc21`, for which the TGI in the assay with HOP-62 NSCLC, in the assay with HT29 colon, with M14 melanoma, in the assay on MALME-3M melanoma, in the assay with NCI-H522 lung and with OVCAR-8 ovarian was above 100 µM throughout. For the same molecule, the TGI in the assay on RPMI-8226 leukemia, in the assay with SF-539 CNS and in the assay on SK-MEL-5 melanoma was above 100 µM throughout.

Consider `CC(=O)Nc1ccccc1-c1cnc2ccccc2n1`, for which the TGI in the assay with HOP-62 NSCLC, with HT29 colon, with M14 melanoma, in the assay on MALME-3M melanoma, in the assay on NCI-H522 lung and in the assay on OVCAR-8 ovarian was above 100 µM each time. For the same molecule, the TGI in the assay with RPMI-8226 leukemia, with SF-539 CNS and in the assay on SK-MEL-5 melanoma was above 100 µM in each case.

`CC(=O)C1C(=O)C(=O)N(c2ccccc2N2C(=O)C(=O)C(C(C)=O)C2=O)C1=O` (stereo not given): the TGI with HOP-62 NSCLC, in the assay with HT29 colon, in the assay on M14 melanoma, with MALME-3M melanoma, in the assay on NCI-H522 lung and with OVCAR-8 ovarian was above 100 µM throughout. The TGI in the assay on RPMI-8226 leukemia, in the assay on SF-539 CNS and with SK-MEL-5 melanoma was above 100 µM throughout.

`COc1c(NC(=O)CC(C)=O)[c]([Hg][O]C(C)=O)c(OC)c(Cl)[c]1[Hg][O]C(C)=O`: the GI50 was 20.2 µM with HOP-62 NSCLC; 11.3 µM in the assay with HT29 colon; 13 µM with M14 melanoma; 5.17 µM with MALME-3M melanoma; 2.07 µM in the assay on NCI-H522 lung; 17.8 µM in the assay on OVCAR-8 ovarian. For the same molecule, the GI50 in the assay on RPMI-8226 leukemia is 17.5 µM; in the assay with SF-539 CNS, 2.72 µM; in the assay with SK-MEL-5 melanoma, 12.5 µM. The TGI in the assay on HOP-62 NSCLC is 36.6 µM; in the assay with HT29 colon, 32.6 µM; in the assay with M14 melanoma, 25.7 µM; in the assay with MALME-3M melanoma, 16.8 µM; in the assay on NCI-H522 lung, 7.04 µM; in the assay on OVCAR-8 ovarian it was 36.3 µM. The TGI came to 63.5 µM in the assay with RPMI-8226 leukemia, 9.7 µM in the assay on SF-539 CNS and 25 µM with SK-MEL-5 melanoma.

`Cc1ccccc1-c1c(N)nc(N)nc1C(=O)Nc1nccs1`: the TGI in the assay on HOP-62 NSCLC, with HT29 colon, in the assay on M14 melanoma, in the assay on MALME-3M melanoma, in the assay with NCI-H522 lung and in the assay on OVCAR-8 ovarian was above 100 µM in each case. For the same molecule, the TGI in the assay on RPMI-8226 leukemia, in the assay on SF-539 CNS and in the assay with SK-MEL-5 melanoma was above 100 µM throughout.

For `CCCCCCCCCC1C(C)c2c([nH]c3ccccc23)C2C(=O)N(c3ccccc3)C(=O)C21` (stereo not given), the TGI in the assay with HOP-62 NSCLC was 31.2 µM; with HT29 colon it was 22.7 µM; with M14 melanoma, 28.7 µM; in the assay on MALME-3M melanoma it was above 100 µM; in the assay with OVCAR-8 ovarian, above 100 µM; in the assay on SF-539 CNS, 40.6 µM. Besides, in the assay with SK-MEL-5 melanoma, the TGI was 31.6 µM.

With `Cc1ccc(NC(=O)CC/C(CC(=O)c2ccc(F)cc2)=N\NC(=O)C(=O)NN)cc1C`, the TGI with HOP-62 NSCLC, in the assay with HT29 colon, in the assay on M14 melanoma, in the assay on MALME-3M melanoma, in the assay with NCI-H522 lung and in the assay with OVCAR-8 ovarian was above 100 µM in each case. Moreover, the TGI in the assay with SF-539 CNS and in the assay with SK-MEL-5 melanoma was above 100 µM throughout.
